Reference: ChEMBL document CHEMBL1201862, “PubChem BioAssay data set” (2004)
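Test compounds were applied to cells in 96-well plates for 48 hours at 5 doses. The concentration for 50% growth inhibition is given as GI50.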 Activity calls are given as the source filed them. Cut-off read from the data, not from the text of the source: active = GI50 up to about 1.1 µM and inactive = higher.

Columns and labels:
Test in all cases: NCI anticancer screen, dose series, 48 h
[1] = test system: LXFL 529
[2] = test system: XF498
[3] = test system: Malme-3M
[4] = test system: RXF 631
[5] = test system: MDA-MB-435
[6] = test system: MDA-N
[7] = test system: NCI/ADR-RES
[8] = test system: PC-3

Measured: GI50

COc1ccc(/C=C/C(=O)C(C)(C)C)cc1OC
inactive: [1] 43.6 µM | [2] 66.8 µM

Cc1c2ccccc2c(CO)c2cc(F)c3ccccc3c12
inactive: [3] 53.8 µM | [4] 16.7 µM | [2] 22.1 µM

Cc1ccc(/N=N/C(C2=NC(=O)CS2)c2nc3ccccc3[nH]2)cc1 (stereo not given)
inactive: [1] > 100 µM | [3] > 100 µM | [2] > 100 µM

Cc1cn(C2CC(n3cc(Cn4ccc(=O)[nH]c4=O)nn3)C(CO)O2)c(=O)[nH]c1=O (stereo not given)
inactive: [5] > 100 µM | [6] > 100 µM | [7] > 100 µM | [8] > 100 µM

Cc1ccc2c(O)cc(-c3ccc(F)cc3)nc2n1
inactive: [6] 12.1 µM | [3] 32.4 µM | [7] 25.7 µM

NC(=O)c1ncn2c1CNC(=O)C2
inactive: [5] > 100 µM | [3] > 100 µM | [7] > 100 µM | [8] > 100 µM

Nc1nc(Cl)cc(NCCCNc2cc(Cl)nc(N)n2)n1
inactive: [1] > 100 µM | [3] > 100 µM | [4] > 100 µM | [2] > 100 µM

CCCCCCNC(=O)C(C)C1CCC2(C)C=CC(=O)C(C)=C2C1O (stereo not given)
inactive: [7] > 100 µM | [2] > 100 µM
